In the RepoRT retention time repository:

Test: Thermo Scientific Acclaim RSLC 120 C18, 100 × 2.1 mm, 2.2 µm, 30 °C, 0.2 to 0.48 mL/min, estimated dead time 1.1 min; A: 90% water + 10% methanol + 5 mM ammonium acetate; B: methanol + 5 mM ammonium acetate; gradient (min/%B) 0.1/1 3/39 14/99.9 16/99.9
Settings: stereoisomer not certain

Point of comparison: `CCOC(=O)Nc1cccc(OC(=O)Nc2ccccc2)c1`, LC retention time 8.53 min. Against it:
- CCC(C)C(=O)OC1CC(O)C=C2C=CC(C)C(CCC(O)CC(O)CC(=O)O)C21 (centres undefined) — within 1.5-fold, 8.27 min
- NCC(O)c1ccc(O)cc1 (centres undefined) — 4.4-fold lower, 1.96 min
- COCCN(C(=O)C(=O)O)c1c(C)cccc1C — within 1.5-fold, 6.07 min
- Nc1ncn[nH]1 — 5.1-fold lower, 1.67 min
- NC(=O)c1ccccc1O — 1.8-fold lower, 4.83 min
- COC(=O)c1sccc1S(=O)(=O)NC(=O)Nc1nc(C)nc(OC)n1 — 1.9-fold lower, 4.52 min
- CCNc1nc(NCC)[nH]c(=O)n1 — 1.5-fold lower, 5.56 min
- COC(=O)NC(=S)Nc1ccccc1NC(=S)NC(=O)OC — within 1.5-fold, 6.88 min
- O=C1NC(=O)C(c2ccccc2)(c2ccccc2)N1 — within 1.5-fold, 8.26 min
- CCCNC(C)C(=O)Nc1ccccc1C (centres undefined) — within 1.5-fold, 7.49 min
- CCCCCc1cc(O)c2c(c1)OC(C)(C)C1CCC(C(=O)O)=CC21 (centres undefined) — within 1.5-fold, 12 min
- Cc1cc(C)n(-c2nc3ccccc3[nH]2)n1 — within 1.5-fold, 8.22 min
- CCOC1OC(C(=O)O)C(O)C(O)C1O (centres undefined) — 6.3-fold lower, 1.35 min
- COc1ccc(Oc2ccc(NC(=O)N(C)C)cc2)cc1 — within 1.5-fold, 8.39 min
- Cc1ccc(NC(=O)NC(C)(C)c2ccccc2)cc1 — within 1.5-fold, 9.64 min
- O=C(O)c1ccccc1 — 3-fold lower, 2.88 min
- CNC(=O)N(C)c1nc2ccccc2s1 — within 1.5-fold, 8.23 min
- NC(=O)N=C(N)N — 4.9-fold lower, 1.73 min
- CNC(=O)Oc1cccc2c1OC(C)(C)C2O (centres undefined) — 1.7-fold lower, 5.09 min
- CC(C)N(C(=O)CS(=O)(=O)O)c1ccccc1 — within 1.5-fold, 6.01 min
- CC1=C(C(=O)Nc2ccccc2)SCCO1 — within 1.5-fold, 7.42 min
- CNC(=C[N+](=O)[O-])NCCS(=O)Cc1ccc(CN(C)C)o1 (centres undefined) — 2.2-fold lower, 3.93 min
- CCOP(=S)(OCC)Oc1cnccn1 — within 1.5-fold, 8.03 min
- C=C1CC23CC1(O)CCC2C12C=CC(O)C(C)(C(=O)O1)C2C3C(=O)O (centres undefined) — 1.9-fold lower, 4.42 min
- CC(NC(=O)C(N)CC(=O)O)C(=O)NC1C(C)(C)SC1(C)C (centres undefined) — within 1.5-fold, 6.06 min
- CCOC(=O)C1=CC(OC(CC)CC)C(NC(C)=O)C(N)C1 (centres undefined) — within 1.5-fold, 8.79 min
- CCc1cnc(C2=NC(C)(C(C)C)C(=O)N2)c(C(=O)O)c1 (centres undefined) — 2-fold lower, 4.32 min
- CC12CCC3C(CC(O)C4=CC(=O)CCC43C)C1CCC2=O (centres undefined) — within 1.5-fold, 6.99 min
- COC(=O)C(C)=COP(=S)(OC)OC — 1.7-fold lower, 5.12 min
- COC(=O)NS(=O)(=O)c1ccc(N)cc1 — 5.8-fold lower, 1.46 min
- Cc1ccc(S(N)(=O)=O)cc1 — 1.8-fold lower, 4.79 min
- CC(C)(C)c1n[nH]c(=O)n(N)c1=O — within 1.5-fold, 6.67 min
- COc1cc(C=CC(=O)CC(=O)C=Cc2ccc(O)c(OC)c2)ccc1O — within 1.5-fold, 10 min
- CCC(=C(c1ccccc1)c1ccc(OCCN(C)C)cc1)c1ccc(OC)c(O)c1 — within 1.5-fold, 11.5 min
- CCOP(=S)(NC(C)C)Oc1ccccc1C(=O)OC(C)C (centres undefined) — within 1.5-fold, 11.2 min
- COc1cc(OC)nc(NC(=O)NS(=O)(=O)c2ncccc2C(=O)N(C)C)n1 — 2-fold lower, 4.32 min
- Cc1cccc(C)c1N(Cn1cccn1)C(=O)CS(=O)(=O)O — within 1.5-fold, 6.02 min
- CC(=O)Nc1ccc(S(=O)(=O)Nc2nccs2)cc1 — 1.9-fold lower, 4.61 min
- CS(=O)(=O)c1ccc(C(=O)C2C(=O)CCCC2=O)c([N+](=O)[O-])c1 — 4-fold lower, 2.13 min
- CC(C)(C)NCC(O)c1ccc(O)c(CO)c1 (centres undefined) — 2.1-fold lower, 4.06 min
- CC1(C)OCC2OC3(C(=O)O)OC(C)(C)OC3C2O1 (centres undefined) — 2-fold lower, 4.3 min
- CCc1cccc2c3c([nH]c12)C(CC)(CC(=O)O)OCC3 (centres undefined) — within 1.5-fold, 10.5 min
- CNC(=O)N(C)c1nnc(C(C)(C)C)s1 — within 1.5-fold, 7.21 min
- CC1C=CC=CCCC=CC=CC=CC=CC(OC2OC(C)C(O)C(N)C2O)CC2OC(O)(CC(O)C(O)CCC(O)CC(O)CC(O)CC(=O)OC(C)C(C)C1O)CC(O)C2C(=O)O (centres undefined) — within 1.5-fold, 11.8 min
- CC1CC(C)C(=O)C(C(O)CC2CC(=O)NC(=O)C2)C1 (centres undefined) — within 1.5-fold, 6.32 min
- COP(=S)(OC)Oc1ccc(S(N)(=O)=O)cc1 — within 1.5-fold, 6.16 min
- CC12C=CC(=O)C=C1CCC1C2C(O)CC2(C)C1CCC2(O)C(=O)CO (centres undefined) — within 1.5-fold, 8.92 min
- COC(=O)NC(C(=O)NC(Cc1ccccc1)C(O)CN(Cc1ccc(-c2ccccn2)cc1)NC(=O)C(NC(=O)OC)C(C)(C)C)C(C)(C)C (centres undefined) — within 1.5-fold, 12.4 min
- CC(C)(c1ccc(O)cc1)c1ccc(O)cc1 — within 1.5-fold, 8.49 min
- CC(C)Nc1nc(NC(C)C)[nH]c(=O)n1 — within 1.5-fold, 8.19 min
- CNC(=O)Nc1nc2ccccc2s1 — within 1.5-fold, 7.1 min
- COC(=O)c1ccccc1S(=O)(=O)NC(=O)Nc1nc(C)cc(C)n1 — 1.7-fold lower, 5.03 min
- O=C1NC(=O)C2CC=CCC12 (centres undefined) — 2-fold lower, 4.36 min
- O=C(O)c1ccccc1O — 2.4-fold lower, 3.58 min
- CCC(C)C1(CC)C(=O)NC(=O)NC1=O (centres undefined) — within 1.5-fold, 6.83 min
- CC12CCC3c4cc(O)c(O)cc4CCC3C1CCC2=O (centres undefined) — within 1.5-fold, 9.74 min
- COC1CCC(OC2CC(C3OC(C)(O)C(C)CC3C)OC2C2(C)CCC(C3(C)CCC4(CC(O)C(C)C(C(C)C5OC(O)(CC(=O)O)C(C)C(O)C5OC)O4)O3)O2)OC1C (centres undefined) — 1.6-fold higher, 13.7 min
- CC(C(=O)O)c1ccc(C(=O)c2cccs2)cc1 (centres undefined) — within 1.5-fold, 8.96 min
- CNC(=O)ON=C(C)C(C)S(C)(=O)=O (centres undefined) — 2.3-fold lower, 3.67 min
- CCCCc1c(C)nc(NCC)[nH]c1=O — within 1.5-fold, 8.39 min
- CCOS(=O)(=O)O — 5.6-fold lower, 1.52 min
- CC(Cn1cnc2c(N)ncnc21)OCP(=O)(O)O (centres undefined) — 2.7-fold lower, 3.18 min
- C=C(C)C1CCC(C)=CC1c1c(O)cc(CCCCC)cc1O (centres undefined) — 1.6-fold higher, 13.7 min
- CCOc1nc2cccc(C(=O)O)c2n1Cc1ccc(-c2ccccc2-c2nn[nH]n2)cc1 — within 1.5-fold, 5.86 min
- COCc1cnc(C2=NC(C)(C(C)C)C(=O)N2)c(C(=O)O)c1 (centres undefined) — 2.3-fold lower, 3.74 min
- CCCCOc1cc(C(=O)NCCN(CC)CC)c2ccccc2n1 — within 1.5-fold, 11.6 min
- CC1(C)SC2C(NC(=O)C(N)c3ccc(O)cc3)C(=O)N2C1C(=O)O (centres undefined) — 2.3-fold lower, 3.68 min
- CC(C(=O)O)c1ccc(N2Cc3ccccc3C2=O)cc1 (centres undefined) — within 1.5-fold, 6.23 min
- CCOc1cc(CC(=O)NC(CC(C)C)c2ccccc2N2CCCCC2)ccc1C(=O)O (centres undefined) — 1.5-fold higher, 12.8 min
- COP(=O)(NC(C)=O)SC (centres undefined) — 2.8-fold lower, 3.09 min
- CSc1nnc(C(C)(C)C)c(=O)n1N — within 1.5-fold, 7.04 min
- CCOP(=S)(OCC)SCS(=O)(=O)C(C)(C)C — within 1.5-fold, 8.98 min
- COc1cccc(C(=O)NN(C(=O)c2cc(C)cc(C)c2)C(C)(C)C)c1C — within 1.5-fold, 9.55 min
- CCCC(CCC)C(=O)O — within 1.5-fold, 7.04 min
- CCOP(=O)(NC(C)C)Oc1ccc(S(C)(=O)=O)c(C)c1 (centres undefined) — within 1.5-fold, 7.17 min
- CNC(=O)Oc1cccc2ccccc12 — within 1.5-fold, 7.42 min
- CC(=O)CC(c1ccccc1)c1c(O)c2ccccc2oc1=O (centres undefined) — within 1.5-fold, 6.56 min
- CC12CCC(O)CC1CCC1C2CCC2(C)C1CCC2(C)O (centres undefined) — 1.6-fold higher, 14 min
- CSc1nc(N=[N+]=[N-])nc(NC(C)C)n1 — within 1.5-fold, 9.67 min
- O=C(O)Cc1cccc2ccccc12 — within 1.5-fold, 5.7 min
- Cc1c(N(C)CS(=O)(=O)O)c(=O)n(-c2ccccc2)n1C — 1.7-fold lower, 4.89 min
- CCNC(=O)C(C)OC(=O)Nc1ccccc1 (centres undefined) — within 1.5-fold, 6.54 min
- COC(=O)Nc1cccc(OC(=O)Nc2cccc(C)c2)c1 — within 1.5-fold, 8.72 min
- CC(C)CN(CC(O)C(Cc1ccccc1)NC(=O)OC1COC2OCCC12)S(=O)(=O)c1ccc(N)cc1 (centres undefined) — within 1.5-fold, 9.37 min
- S=c1[nH]c2ccccc2s1 — within 1.5-fold, 6.58 min
- CCc1ccc(CCOc2ccc(CC3SC(=O)NC3=O)cc2)nc1 (centres undefined) — within 1.5-fold, 10.6 min
- CC(CCC(=O)O)C1CCC2C3C(O)CC4CC(O)CCC4(C)C3CCC12C (centres undefined) — within 1.5-fold, 11.1 min
- CC[N+]([O-])(CC)CC(=O)Nc1c(C)cccc1C — within 1.5-fold, 6.56 min
- COCCCOc1cc(CC(CC(N)C(O)CC(C(=O)NCC(C)(C)C(N)=O)C(C)C)C(C)C)ccc1OC (centres undefined) — within 1.5-fold, 10.9 min
- CC(C)NCC(O)COc1ccc(CC(=O)O)cc1 (centres undefined) — 2.4-fold lower, 3.58 min
- CCCCCC(C)N (centres undefined) — 1.9-fold lower, 4.41 min
- O=c1[nH]c2c(c(=O)n1C1CCCCC1)CCC2 — within 1.5-fold, 8.23 min
- COc1cc(OC)nc(NC(=O)NS(=O)(=O)c2cc(NC=O)ccc2C(=O)N(C)C)n1 — 1.5-fold lower, 5.62 min
- CC(Cc1ccc(O)cc1)NCC(O)c1cc(O)cc(O)c1 (centres undefined) — 2-fold lower, 4.33 min
- Cc1cnc(NC(=O)C2=C(O)c3ccccc3S(=O)(=O)N2C)s1 — within 1.5-fold, 6.41 min
- Cc1cccc(C)c1NC(=O)C1CCCCN1C (centres undefined) — within 1.5-fold, 7.49 min
- CNC(=C[N+](=O)[O-])NCCSCc1ccc(CN(C)C)o1 — 1.8-fold lower, 4.67 min
- CC(C)NCC(O)c1ccc(NS(C)(=O)=O)cc1 (centres undefined) — 2.2-fold lower, 3.91 min
- CC12CCC3C(CCC4CC(OC5OC(C(=O)O)C(O)C(O)C5O)CCC43C)C1CCC2=O (centres undefined) — within 1.5-fold, 10.2 min
- CCCCCCCCCc1ccc(O)cc1 — 1.5-fold higher, 12.9 min
- CCCCC1C(=O)N(c2ccccc2)N(c2ccccc2)C1=O — within 1.5-fold, 7.46 min
- CCCCCCCCCCCCOS(=O)(=O)c1ccccc1 — 1.7-fold higher, 14.2 min
- CC1=NNC(=O)N(N=Cc2cccnc2)C1 — 2.1-fold lower, 4.13 min
- NC(=O)N1c2ccccc2C(O)C(O)c2ccccc21 (centres undefined) — within 1.5-fold, 6.64 min
- COc1ccc(C(=O)c2ccccc2O)cc1 — within 1.5-fold, 12.2 min
- C#CC1(O)CCC2C3CCC4=CC(=O)CCC4=C3C=CC21CC (centres undefined) — within 1.5-fold, 9.64 min
- CN(C)CCC=C1c2ccccc2COc2ccc(CC(=O)O)cc21 — within 1.5-fold, 7.69 min
- O=C1CN=C(c2ccccc2)c2c(sc3c2CCCC3)N1 — within 1.5-fold, 9.91 min
- C=CCC1(C(C)C#CCC)C(=O)NC(=O)N(C)C1=O (centres undefined) — within 1.5-fold, 9.02 min
- O=S(=O)(O)NC1CCCCC1 — 2.1-fold lower, 4.12 min
- CC1CC2(C)C(CCC3C4CCC(O)C4(C)CCC32)CC1=O (centres undefined) — 1.7-fold higher, 14.4 min
- O=C(O)CCC(=O)c1ccc(-c2ccccc2)cc1 — within 1.5-fold, 6.79 min
- CCCC(C)C1(CC)C(=O)NC(=O)NC1=O (centres undefined) — within 1.5-fold, 7.92 min
